For 33 molecules, Ki results are on record in patent US20140296212A1, “SUBSTITUTED PHENOXYPROPYLCYCLOAMINE DERIVATIVES AS HISTAMINE-3 (H3) RECEPTOR LIGANDS” (CEPHALON, INC., priority 2009, published 2014).

The term Ki denotes a dissociation constant, usually derived from enzyme kinetics or from competition with a known ligand. Low values mean a stronger hold on the target, high ones a looser hold on the target.

T1 sequence (Q9Y5N1 whole entry): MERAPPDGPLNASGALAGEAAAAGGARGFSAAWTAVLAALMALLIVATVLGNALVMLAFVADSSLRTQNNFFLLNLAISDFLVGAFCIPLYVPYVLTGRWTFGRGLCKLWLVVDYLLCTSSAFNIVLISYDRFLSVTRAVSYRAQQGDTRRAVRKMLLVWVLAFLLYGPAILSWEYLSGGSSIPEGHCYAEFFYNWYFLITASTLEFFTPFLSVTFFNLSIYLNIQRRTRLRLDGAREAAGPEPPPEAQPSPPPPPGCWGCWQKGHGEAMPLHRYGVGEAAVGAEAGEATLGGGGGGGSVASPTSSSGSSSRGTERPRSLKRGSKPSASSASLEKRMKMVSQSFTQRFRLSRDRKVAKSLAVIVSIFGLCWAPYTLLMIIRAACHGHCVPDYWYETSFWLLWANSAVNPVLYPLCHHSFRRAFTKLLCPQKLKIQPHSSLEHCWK

This assay concerns the target T1, human H3 receptor (Homo sapiens, UniProt Q9Y5N1).
T1 construct: expressed in transfected cells
Briefly: Human H3 radioligand binding ([3H]-N-alpha-methylhistamine, SPA). The settings on record: membranes of CHO cells expressing human H3. The protocol:
Cell pellets were resuspended in 5 mM Tris-HCl, pH 7.5 with 5 nM EDTA and a cocktail of protease inhibitors (Complete Protease Inhibitor Tablets, Roche Diagnostics). Cells were disrupted using a polytron cell homogenizer and the suspension was centrifuged at 1000×g for 10 minutes at 4° C. The pellet was discarded and the supernatant centrifuged at 40,000×g for 30 min at 4° C. This membrane pellet was washed in membrane buffer containing 50 mM Tris-HCl, pH 7.5 with 0.6 mM EDTA, 5 mM MgCl2 and protease inhibitors, recentrifuged as above and the final pellet resuspended in membrane buffer plus 250 mM sucrose and frozen at −80° C.
Membranes were resuspended in 50 mM Tris HCl (pH 7.4), 5 mM MgCl2, 0.1% BSA. The membrane suspensions (10 μg protein per well) were incubated in a 96 well microtiter plate with [^3H]-N-alpha-methylhistamine (approximately 1 nM final concentration), test compounds at various concentrations (0.01 nM-30 μM) and scintillation proximity beads (Perkin Elmer, FlashBlueGPCR Scintillating Beads) in a final volume of 80 μl for 4 hours at room temperature, protected from light. Non-specific binding was determined in the presence of 10 μM clobenpropit. Radioligand bound to receptor, and therefore in proximity to the scintillation beads, was measured using a MicroBeta scintillation counter.
`O=C(CN1CCCCC1)c1ccc(OCCCN2CCCCC2)cc1` [Example 2, 2-Piperidin-1-yl-1-[4-(3-piperidin-1-yl-propoxy)-phenyl]-ethanone] yielded an inhibition constant Ki of 0.1 to 100 nM.
In turn, `O=C(CN1CCCCC1)c1ccc(OCCCN2CCCC2)cc1` [Example 3, 2-Piperidin-1-yl-1-[4-(3-pyrrolidin-1-yl-propoxy)-phenyl]-ethanone] came in with a Ki of 0.1 to 100 nM.
The same measure for `O=C(CN1CCc2ccccc2C1)c1ccc(OCCCN2CCCCC2)cc1` [Example 4, 2-(3,4-Dihydro-1H-isoquinolin-2-yl)-1-[4-(3-piperidin-1-yl-propoxy)-phenyl]-ethanone]: 0.1 to 100 nM; for `O=C(CN1CCc2ccccc2C1)c1ccc(OCCCN2CCCC2)cc1` [Example 5, 2-(3,4-Dihydro-1H-isoquinolin-2-yl)-1-[4-(3-pyrrolidin-1-yl-propoxy)-phenyl]-ethanone]: 0.1 to 100 nM.
On to `O=C(CN1Cc2ccccc2C1)c1ccc(OCCCN2CCCCC2)cc1` [Example 6, 2-(1,3-Dihydro-isoindol-2-yl)-1-[4-(3-piperidin-1-yl-propoxy)-phenyl]-ethanone], for which the inhibitory constant (Ki) was in the range of 0.1 to 100 nM.
Consider `O=C(CN1CCCc2ccccc21)c1ccc(OCCCN2CCCCC2)cc1` [Example 7, 2-(3,4-Dihydro-2H-quinolin-1-yl)-1-[4-(3-piperidin-1-yl-propoxy)-phenyl]-ethanone], for which the Ki lay in the range of 0.1 to 100 nM.
Molecule `C[C@@H]1CCCN1CCCOc1ccc(C(=O)CN2CCc3ccccc3C2)cc1` [Example 9, 2-(3,4-Dihydro-1H-isoquinolin-2-yl)-1-{4-[3-((R)-2-methyl-pyrrolidin-1-yl)-propoxy]-phenyl}-ethanone] had an inhibition constant Ki of 0.1 to 100 nM.
`CC1CCCCN1CCCOc1ccc(C(=O)CN2CCCCC2)cc1` (stereo not drawn) [Example 10, 1-{4-[3-(2-Methyl-piperidin-1-yl)-propoxy]-phenyl}-2-piperidin-1-yl-ethanone]: the Ki lay in the range of 0.1 to 100 nM.
As for `CC1CCCC(C)N1CCCOc1ccc(C(=O)CN2CCCCC2)cc1` (stereo not drawn) [Example 11, 1-{4-[3-(2,6-Dimethyl-piperidin-1-yl)-propoxy]-phenyl}-2-piperidin-1-yl-ethanone], the inhibition constant (Ki) was in the range of 0.1 to 100 nM.
As to `C[C@@H]1CC[C@@H](C)N1CCCOc1ccc(C(=O)CN2CCCCC2)cc1` [Example 12, 1-{4-[3-((2R,5R)-2,5-Dimethyl-pyrrolidin-1-yl)-propoxy]-phenyl}-2-piperidin-1-yl-ethanone], the Ki lay in the range of 0.1 to 100 nM.
`C[C@H]1CCCN1CCCOc1ccc(C(=O)CN2CCCCC2)cc1` [Example 13, 1-{4-[3-((S)-2-Methyl-pyrrolidin-1-yl)-propoxy]-phenyl}-2-piperidin-1-yl-ethanone] yielded a Ki of 0.1 to 100 nM.
As for `CC(C(=O)c1ccc(OCCCN2CCCC2)cc1)N1CCCCC1` (stereo not drawn) [Example 14, 2-Piperidin-1-yl-1-[4-(3-pyrrolidin-1-yl-propoxy)-phenyl]-propan-1-one], the figure is 0.1 to 100 nM.
For the molecule `CC(C)N1CCN(CCCOc2ccc(C(=O)CN3CCCCC3)cc2)CC1` [Example 16, 1-{4-[3-(4-Isopropyl-piperazin-1-yl)-propoxy]-phenyl}-2-piperidin-1-yl-ethanone], the inhibition constant (Ki) lay in the range of 0.1 to 100 nM.
As to `O=C(CN1CCN(c2ccccc2)CC1)c1ccc(OCCCN2CCCC2)cc1` [Example 17, 2-(4-Phenyl-piperazin-1-yl)-1-[4-(3-pyrrolidin-1-yl-propoxy)-phenyl]-ethanone], the Ki was 0.1 to 100 nM.
On to `CC1CCCN1CCCOc1ccc(C(=O)CN2CCN(c3ccccc3)CC2)cc1` (stereo not drawn) [Example 18, 1-{4-[3-(2-Methyl-pyrrolidin-1-yl)-propoxy]-phenyl}-2-(4-phenyl-piperazin-1-yl)-ethanone], for which the Ki was 0.1 to 100 nM.
In the case of `CC(C(=O)c1ccc(OCCCN2CCCC2)cc1)N1CCCC1` (stereo not drawn) [Example 23, 2-Pyrrolidin-1-yl-1-[4-(3-pyrrolidin-1-yl-propoxy)-phenyl]-propan-1-one], the Ki fell in the range of 0.1 to 100 nM.
As for `CC1CCCN1CCCOc1ccc(C(=O)C(C)N2CCCC2)cc1` (stereo not drawn) [Example 24, 1-{4-[3-(2-Methyl-pyrrolidin-1-yl)-propoxy]-phenyl}-2-pyrrolidin-1-yl-propan-1-one], the figure is 0.1 to 100 nM; as for `CC(C(=O)c1ccc(OCCCN2CCCC2)cc1)N1CCOCC1` (stereo not drawn) [Example 25, 2-Morpholin-4-yl-1-[4-(3-pyrrolidin-1-yl-propoxy)-phenyl]-propan-1-one], 0.1 to 100 nM; as for `CC(C(=O)c1ccc(OCCCN2CCCCC2)cc1)N1CCOCC1` (stereo not drawn) [Example 26, 2-Morpholin-4-yl-1-[4-(3-piperidin-1-yl-propoxy)-phenyl]-propan-1-one], 0.1 to 100 nM.
As for `CC1CCCN1CCCOc1ccc(C(=O)C(C)N2CCN(c3ccccc3)CC2)cc1` (stereo not drawn) [Example 28, 1-{4-[3-(2-Methyl-pyrrolidin-1-yl)-propoxy]-phenyl}-2-(4-phenyl-piperazin-1-yl)-propan-1-one], the figure is 0.1 to 100 nM.
In turn, `CC(C(=O)c1ccc(OCCCN2CCCC2)cc1)N1CCN(c2ccccc2)CC1` (stereo not drawn) [Example 30, 2-(4-Phenyl-piperazin-1-yl)-1-[4-(3-pyrrolidin-1-yl-propoxy)-phenyl]-propan-1-one] yielded a Ki of 0.1 to 100 nM.
Turning to `CC(C(=O)c1ccc(OCCCN2CCCCC2)cc1)N1CCN(c2ccccc2)CC1` (stereo not drawn) [Example 31, 2-(4-Phenyl-piperazin-1-yl)-1-[4-(3-piperidin-1-yl-propoxy)-phenyl]-propan-1-one], the Ki fell in the range of 0.1 to 100 nM.
In turn, `CC(=O)N1CCN(C(C)C(=O)c2ccc(OCCCN3CCCCC3)cc2)CC1` (stereo not drawn) [Example 32, 2-(4-Acetyl-piperazin-1-yl)-1-[4-(3-piperidin-1-yl-propoxy)-phenyl]-propan-1-one] came in with a Ki of 0.1 to 100 nM.
The same measure for `CC(=O)N1CCN(C(C)C(=O)c2ccc(OCCCN3CCCC3C)cc2)CC1` (stereo not drawn) [Example 33, 2-(4-Acetyl-piperazin-1-yl)-1-{4-[3-(2-methyl-pyrrolidin-1-yl)-propoxy]-phenyl}-propan-1-one]: 0.1 to 100 nM.
As to `CC(C(=O)c1ccc(OCCCN2CCCCC2)cc1)N1CCSCC1` (stereo not drawn) [Example 34, 1-[4-(3-Piperidin-1-yl-propoxy)-phenyl]-2-thiomorpholin-4-yl-propan-1-one], the Ki was 0.1 to 100 nM.
With `CC1CCCN1CCCOc1ccc(C(=O)C(C)N2CCSCC2)cc1` (stereo not drawn) [Example 35, 1-{4-[3-(2-Methyl-pyrrolidin-1-yl)-propoxy]-phenyl}-2-thiomorpholin-4-yl-propan-1-one], the Ki is 0.1 to 100 nM.
The same measure for `CC(C(=O)c1ccc(OCCCN2CCC[C@@H]2C)cc1)N1CCCCC1=O` (stereo partly drawn) [Example 36, 1-(1-Methyl-2-{4-[3-((S)-2-methyl-pyrrolidin-1-yl)-propoxy]-phenyl}-2-oxo-ethyl)-piperidin-2-one]: 101 to 500 nM.
As for `CO/N=C(\CN1CCCCC1)c1ccc(OCCCN2CCC[C@H]2C)cc1` [Example 159], the figure is 0.1 to 100 nM; as for `CO/N=C(/CN1CCCCC1)c1ccc(OCCCN2CCC[C@H]2C)cc1` [Example 161], 0.1 to 100 nM; as for `CON=C(c1ccc(OCCCN2CCCCC2)cc1)C(C)N1CCCCC1` (stereo not drawn) [Example 163], 0.1 to 100 nM.
The same measure for `CC(C(=NOCc1ccccc1)c1ccc(OCCCN2CCCCC2)cc1)N1CCCCC1` (stereo not drawn) [Example 164]: 0.1 to 100 nM; for `CC1CCCN1CCCOc1ccc(/C(CN2CCN(c3ccccc3)CC2)=N/OC(C)(C)C)cc1` (stereo not drawn) [Example 166]: 0.1 to 100 nM; for `CON=C(c1ccc(OCCCN2CCCC2C)cc1)C(C)N1CCCCC1` (stereo not drawn) [Example 169]: 0.1 to 100 nM.
